Assay results reported in ChEMBL document CHEMBL3508574 (2016).

How the values were obtained:
[1] = Cmax of total HMG-CoA reductase inhibitor (both lactone and open acid) following administration of simvastatin tablet at 40 mg dose level in hypercholesterolemic patients; assay type: ADME, organism-based, Plasma; conditions: human, in vivo, po
[2] = Cmax of total HMG-CoA reductase inhibitor (both lactone and open acid) following administration of simvastatin tablet at 80 mg dose level in hypercholesterolemic patients; assay type: ADME, organism-based, Plasma; conditions: human, in vivo, po
[3] = Cmax of total HMG-CoA reductase inhibitor (both lactone and open acid) following administration of simvastatin tablet at 160 mg dose level in hypercholesterolemic patients; assay type: ADME, organism-based, Plasma; conditions: human, in vivo, po
[4] = AUC of total HMG-CoA reductase inhibitor (both lactone and open acid) following administration of simvastatin tablet at 40 mg dose level in hypercholesterolemic patients; assay type: ADME, organism-based, Plasma; conditions: human, in vivo, po
[5] = AUC of total HMG-CoA reductase inhibitor (both lactone and open acid) following administration of simvastatin tablet at 80 mg dose level in hypercholesterolemic patients; assay type: ADME, organism-based, Plasma; conditions: human, in vivo, po
[6] = AUC of total HMG-CoA reductase inhibitor (both lactone and open acid) following administration of simvastatin tablet at 160 mg dose level in hypercholesterolemic patients; assay type: ADME, organism-based, Plasma; conditions: human, in vivo, po
[7] = Absorption of simvastatin following oral administration of simvastatin in rat; assay type: ADME, organism-based; conditions: in vivo
[8] = Absorption of simvastatin following oral administration of simvastatin in dog; assay type: ADME, organism-based, Canis lupus familiaris; conditions: in vivo
[9] = Absorption of simvastatin following oral administration of simvastatin in human; assay type: ADME, organism-based; conditions: in vivo
[10] = test system: Canis lupus familiaris; assay: Plasma protein binding of simvastatin following oral dose of simvastatin at 2 mg.Kg-1 level in dog; assay type: organism-based; parameters: dose 2 mg.Kg-1, dosed compound id 2.4681e+06, dosed compound name, dose level, study doses mg.Kg-1
[11] = test system: Homo sapiens; assay: Plasma protein binding of simvastatin following oral dose of simvastatin at […] level in human; assay type: organism-based; parameters: dose 40 mg, dosed compound id 2.4681e+06, dosed compound name, dose level, study doses mg
[12] = Mean AUC (0-t) of simvastatin following administration of simvastatin 80 mg orally disintegrating tablet in healthy human; assay type: ADME, organism-based; conditions: plasma, po
[13] = Mean AUC (0-t) of simvastatin following administration of reference product Zocor 80 mg tablet in healthy human; assay type: ADME, organism-based; conditions: plasma, po
[14] = Mean AUC (0-infinity) of simvastatin following administration of simvastatin 80 mg orally disintegrating tablet in healthy human; assay type: ADME, organism-based; conditions: plasma, po, read-out: AUC (0-infinity)
[15] = Mean AUC (0-infinity) of simvastatin following administration of reference product Zocor 80 mg tablet in healthy human; assay type: ADME, organism-based; conditions: plasma, po, read-out: AUC (0-infinity)
[16] = Mean Cmax of simvastatin following administration of simvastatin 80 mg orally disintegrating tablet in healthy human; assay type: ADME, organism-based; conditions: plasma, po
[17] = Mean Cmax of simvastatin following administration of reference product Zocor 80 mg tablet in healthy human; assay type: ADME, organism-based; conditions: plasma, po
[18] = Mean elimination rate constant of simvastatin following administration of simvastatin 80 mg orally disintegrating tablet in healthy human; assay type: ADME, organism-based; conditions: plasma, po
[19] = Mean elimination rate constant of simvastatin following administration of reference product Zocor 80 mg tablet in healthy human; assay type: ADME, organism-based; conditions: plasma, po
[20] = Mean elimination half-life of simvastatin following administration of simvastatin 80 mg orally disintegrating tablet in healthy human; assay type: ADME, organism-based; conditions: plasma, po
[21] = Mean elimination half-life of simvastatin following administration of reference product Zocor 80 mg tablet in healthy human; assay type: ADME, organism-based; conditions: plasma, po
[22] = Cmax of active HMG-CoA reductase inhibitor L-654,969 following administration of simvastatin tablet at 40 mg dose level in hypercholesterolemic patients; assay type: ADME, organism-based, Plasma; conditions: human, in vivo, po
[23] = Cmax of active HMG-CoA reductase inhibitor L-654,969 following administration of simvastatin tablet at 80 mg dose level in hypercholesterolemic patients; assay type: ADME, organism-based, Plasma; conditions: human, in vivo, po
[24] = Cmax of active HMG-CoA reductase inhibitor L-654,969 following administration of simvastatin tablet at 160 mg dose level in hypercholesterolemic patients; assay type: ADME, organism-based, Plasma; conditions: human, in vivo, po
[25] = Tmax of active HMG-CoA reductase inhibitor L-654,969 following administration of simvastatin tablet at 40 mg dose level in hypercholesterolemic patients; assay type: ADME, organism-based, Plasma; conditions: human, in vivo, po
[26] = Tmax of active HMG-CoA reductase inhibitor L-654,969 following administration of simvastatin tablet at 80 mg dose level in hypercholesterolemic patients; assay type: ADME, organism-based, Plasma; conditions: human, in vivo, po
[27] = Tmax of active HMG-CoA reductase inhibitor L-654,969 following administration of simvastatin tablet at 160 mg dose level in hypercholesterolemic patients; assay type: ADME, organism-based, Plasma; conditions: human, in vivo, po
[28] = AUC of active HMG-CoA reductase inhibitor L-654,969 following administration of simvastatin tablet at 40 mg dose level in hypercholesterolemic patients; assay type: ADME, organism-based, Plasma; conditions: human, in vivo, po
[29] = AUC of active HMG-CoA reductase inhibitor L-654,969 following administration of simvastatin tablet at 80 mg dose level in hypercholesterolemic patients; assay type: ADME, organism-based, Plasma; conditions: human, in vivo, po
[30] = AUC of active HMG-CoA reductase inhibitor L-654,969 following administration of simvastatin tablet at 160 mg dose level in hypercholesterolemic patients; assay type: ADME, organism-based, Plasma; conditions: human, in vivo, po
[31] = Bioavailability of active beta-hydroxy acid form of simvastatin following oral administration of simvastatin in rat; assay type: ADME, organism-based; conditions: in vivo
[32] = Bioavailability of active beta-hydroxy acid form of simvastatin following oral administration of simvastatin in dog; assay type: ADME, organism-based, Canis lupus familiaris; conditions: in vivo
[33] = Bioavailability of active beta-hydroxy acid form of simvastatin following oral administration of simvastatin in human; assay type: ADME, organism-based; conditions: in vivo
[34] = Hepatic extraction of active beta-hydroxy acid form of simvastatin following oral administration of simvastatin in rat; assay type: ADME, organism-based, Liver; conditions: in vivo
[35] = Hepatic extraction of active beta-hydroxy acid form of simvastatin following oral administration of simvastatin in dog; assay type: ADME, organism-based, Canis lupus familiaris, Liver; conditions: in vivo
[36] = Hepatic extraction of active beta-hydroxy acid form of simvastatin following oral administration of simvastatin in human; assay type: ADME, organism-based, Liver; conditions: in vivo
[37] = Extrahepatic tissue penetration of active beta-hydroxy acid form of simvastatin following oral administration of simvastatin in rat; assay type: ADME, organism-based; conditions: in vivo
[38] = Extrahepatic tissue penetration of active beta-hydroxy acid form of simvastatin following oral administration of simvastatin in dog; assay type: ADME, organism-based, Canis lupus familiaris; conditions: in vivo
[39] = Extrahepatic tissue penetration of active beta-hydroxy acid form of simvastatin following oral administration of simvastatin in human; assay type: ADME, organism-based; conditions: in vivo
[40] = Extensive biliary excretion of active beta-hydroxy acid form of simvastatin following oral administration of simvastatin in rat; assay type: ADME, organism-based, Bile; conditions: in vivo
[41] = Extensive biliary excretion of active beta-hydroxy acid form of simvastatin following oral administration of simvastatin in dog; assay type: ADME, organism-based, Canis lupus familiaris, Bile; conditions: in vivo
[42] = Extensive biliary excretion of active beta-hydroxy acid form of simvastatin following oral administration of simvastatin in human; assay type: ADME, organism-based, Bile; conditions: in vivo
[43] = test system: Canis lupus familiaris; assay: Plasma protein binding of simvastatin acid following oral dose of simvastatin at 2 mg.Kg-1 level in dog; assay type: organism-based; parameters: dose 2 mg.Kg-1, dosed compound id 2.4681e+06, dosed compound name, dose level, study doses mg.Kg-1
[44] = test system: Homo sapiens; assay: Plasma protein binding of simvastatin acid following oral dose of simvastatin at […] level in human; assay type: organism-based; parameters: dose 40 mg, dosed compound id 2.4681e+06, dosed compound name, dose level, study doses mg
[45] = Mean AUC (0-t) of simvastatin acid following administration of simvastatin 80 mg orally disintegrating tablet in healthy human; assay type: ADME, organism-based, Plasma; conditions: in vivo, po
[46] = Mean AUC (0-t) of simvastatin acid following administration of reference product Zocor 80 mg tablet in healthy human; assay type: ADME, organism-based, Plasma; conditions: in vivo, po
[47] = Mean AUC (0-infinity) of simvastatin acid following administration of simvastatin 80 mg orally disintegrating tablet in healthy human; assay type: ADME, organism-based, Plasma; conditions: in vivo, po
[48] = Mean AUC (0-infinity) of simvastatin acid following administration of reference product Zocor 80 mg tablet in healthy human; assay type: ADME, organism-based, Plasma; conditions: in vivo, po
[49] = Mean Cmax of simvastatin acid following administration of simvastatin 80 mg orally disintegrating tablet in healthy human; assay type: ADME, organism-based, Plasma; conditions: in vivo, po
[50] = Mean Cmax of simvastatin acid following administration of reference product Zocor 80 mg tablet in healthy human; assay type: ADME, organism-based, Plasma; conditions: in vivo, po
[51] = Mean Tmax of simvastatin acid following administration of simvastatin 80 mg orally disintegrating tablet in healthy human; assay type: ADME, organism-based, Plasma; conditions: in vivo, po
[52] = Mean Tmax of simvastatin acid following administration of reference product Zocor 80 mg tablet in healthy human; assay type: ADME, organism-based, Plasma; conditions: in vivo, po
[53] = Mean elimination rate constant of simvastatin acid following administration of simvastatin 80 mg orally disintegrating tablet in healthy human; assay type: ADME, organism-based, Plasma; conditions: in vivo, po
[54] = Mean elimination rate constant of simvastatin acid following administration of reference product Zocor 80 mg tablet in healthy human; assay type: ADME, organism-based, Plasma; conditions: in vivo, po
[55] = Mean elimination half-life of simvastatin acid following administration of simvastatin 80 mg orally disintegrating tablet in healthy human; assay type: ADME, organism-based, Plasma; conditions: in vivo, po
[56] = Mean elimination half-life of simvastatin acid following administration of reference product Zocor 80 mg tablet in healthy human; assay type: ADME, organism-based, Plasma; conditions: in vivo, po

With CCC(C)(C)C(=O)O[C@H]1C[C@@H](C)C=C2C=C[C@H](C)[C@H](CC[C@@H]3C[C@@H](O)CC(=O)O3)[C@H]21 [SIMVASTATIN] the Cmax [1] was 75 ng.eq.ml-1, the Cmax [2] was 165 ng.eq.ml-1 and the Cmax [3] was 404 ng.eq.ml-1. The AUC [4] was 316 ng.eq.h.ml-1, the AUC [5] was 636 ng.eq.h.ml-1 and the AUC [6] was 1533 ng.eq.h.ml-1. For the same compound, the Absorption [7] was “Simvastatin is well absorbed in rats”, the Absorption [8] was “Simvastatin is well absorbed in dogs” and the Absorption [9] was “Simvastatin is well absorbed in humans”. It also gave a PPB [10] of 97%, a PPB [11] of 97% and an AUC(0-t) [12] of 77.6 ng·h/mL. For the same compound, the AUC(0-t) [13] was 83.9 ng·h/mL, the AUC(0-inf) [14] was 98.5 ng·h/mL and the AUC(0-inf) [15] was 102 ng·h/mL. For the same compound, the Cmax [16] was 18.3 ng/mL, the Cmax [17] was 19.4 ng/mL and the k el [18] was 4.16e-05 s⁻¹. For the same compound, the k el [19] was 3.02e-05 s⁻¹, the half-life [20] was 9.39 h and the half-life [21] was 10.1 h.
Work on CCC(C)(C)C(=O)O[C@H]1C[C@@H](C)C=C2C=C[C@H](C)[C@H](CC[C@@H](O)C[C@@H](O)CC(=O)O)[C@H]21 [TENIVASTATIN] yielded a Cmax [22] of 21 ng.eq.ml-1, a Cmax [23] of 50 ng.eq.ml-1 and a Cmax [24] of 138 ng.eq.ml-1. For the same compound, the Tmax [25] was 1.8 h, the Tmax [26] was 1.8 h and the Tmax [27] was 1.8 h. It also gave an AUC [28] of 120 ng.eq.h.ml-1, an AUC [29] of 263 ng.eq.h.ml-1 and an AUC [30] of 668 ng.eq.h.ml-1. The F [31] was “The active beta-hydroxyacid form of simvastatin is poorly bioavailable in rats”, the F [32] was “The active beta-hydroxyacid form of simvastatin is poorly bioavailable in dogs” and the F [33] was “The active beta-hydroxyacid form of simvastatin is poorly bioavailable in humans”. For the same compound, the Hepatic extraction [34] was “VALUE = Hepatic extraction of active beta-hydroxyacid form of simvastatin is high”, the Hepatic extraction [35] was “VALUE = Hepatic extraction of active beta-hydroxyacid form of simvastatin is high” and the Hepatic extraction [36] was “VALUE = Hepatic extraction of active beta-hydroxyacid form of simvastatin is high”. For the same compound, the Compound recovery [37] was “VALUE = Extrahepatic tissue penetration of active beta-hydroxyacid form of simvastatin is relatively poor”, the Compound recovery [38] was “VALUE = Extrahepatic tissue penetration of active beta-hydroxyacid form of simvastatin is relatively poor” and the Compound recovery [39] was “VALUE = Extrahepatic tissue penetration of active beta-hydroxyacid form of simvastatin is relatively poor”. The Compound recovery [40] was “OUTCOME = Observed, VALUE = Biliary excretion of active beta-hydroxyacid form of simvastatin is extensive”, the Compound recovery [41] was “OUTCOME = Observed, VALUE = Biliary excretion of active beta-hydroxyacid form of simvastatin is extensive” and the Compound recovery [42] was “OUTCOME = Observed, VALUE = Biliary excretion of active beta-hydroxyacid form of simvastatin is extensive”. For the same compound, the PPB [43] was 93%, the PPB [44] was 93% and the “AUC(0-t)” value [45] was 37.67 ng·h/mL. The “AUC(0-t)” value [46] was 36.61 ng·h/mL, the “AUC (0-infinity)” value [47] was 41.54 ng·h/mL and the “AUC (0-infinity)” value [48] was 47.76 ng·h/mL. The Cmax [49] was 4.5 ng/mL, the Cmax [50] was 3.88 ng/mL and the Tmax [51] was 4.42 h. The Tmax [52] was 4.35 h, the Kel [53] was 0.1554 h⁻¹ and the Kel [54] was 0.1357 h⁻¹. The t1/2 [55] was 5.95 h and the t1/2 [56] was 8.67 h.
